Results from BigSolDB 2.1.

## CP(=O)(c1ccccc1)c1ccccc1
In benzene, 288.52 K
  solubility (mole fraction): 0.0439
In benzene, 293.56 K
  solubility (mole fraction): 0.0573
In benzene, 298.13 K
  solubility (mole fraction): 0.0698
In benzene, 303.21 K
  solubility (mole fraction): 0.0875
In benzene, 308.12 K
  solubility (mole fraction): 0.102
In benzene, 312.55 K
  solubility (mole fraction): 0.123
In benzene, 318.04 K
  solubility (mole fraction): 0.156
In benzene, 323.17 K
  solubility (mole fraction): 0.183
In ethyl acetate, 293.25 K
  solubility (mole fraction): 0.0415
In ethyl acetate, 298.46 K
  solubility (mole fraction): 0.0497
In ethyl acetate, 302.88 K
  solubility (mole fraction): 0.0618
In ethyl acetate, 307.97 K
  solubility (mole fraction): 0.0744
In ethyl acetate, 313.22 K
  solubility (mole fraction): 0.0885
In ethyl acetate, 317.25 K
  solubility (mole fraction): 0.104
In ethyl acetate, 322.14 K
  solubility (mole fraction): 0.128
In ethyl acetate, 326.93 K
  solubility (mole fraction): 0.15
In ethylbenzene, 293.35 K
  solubility (mole fraction): 0.0183
In ethylbenzene, 298.04 K
  solubility (mole fraction): 0.0224
In ethylbenzene, 303.12 K
  solubility (mole fraction): 0.0304
In ethylbenzene, 308.33 K
  solubility (mole fraction): 0.0393
In ethylbenzene, 312.8 K
  solubility (mole fraction): 0.0464
In ethylbenzene, 317.51 K
  solubility (mole fraction): 0.061
In ethylbenzene, 321.25 K
  solubility (mole fraction): 0.0719
In ethylbenzene, 326.39 K
  solubility (mole fraction): 0.0876
In m-xylene, 293.75 K
  solubility (mole fraction): 0.0129
In m-xylene, 298.16 K
  solubility (mole fraction): 0.0167
In m-xylene, 303.32 K
  solubility (mole fraction): 0.0216
In m-xylene, 307.41 K
  solubility (mole fraction): 0.0258
In m-xylene, 313 K
  solubility (mole fraction): 0.0332
In m-xylene, 317.53 K
  solubility (mole fraction): 0.0398
In m-xylene, 320.55 K
  solubility (mole fraction): 0.0453
In m-xylene, 326.39 K
  solubility (mole fraction): 0.0614
In o-xylene, 293.35 K
  solubility (mole fraction): 0.0281
In o-xylene, 298.08 K
  solubility (mole fraction): 0.0343
In o-xylene, 303.11 K
  solubility (mole fraction): 0.0406
In o-xylene, 308.23 K
  solubility (mole fraction): 0.0454
In o-xylene, 313.09 K
  solubility (mole fraction): 0.0525
In o-xylene, 317.05 K
  solubility (mole fraction): 0.0603
In o-xylene, 321.94 K
  solubility (mole fraction): 0.071
In o-xylene, 328.07 K
  solubility (mole fraction): 0.0821
In p-xylene, 293.65 K
  solubility (mole fraction): 0.0131
In p-xylene, 298.19 K
  solubility (mole fraction): 0.0175
In p-xylene, 303.31 K
  solubility (mole fraction): 0.0219
In p-xylene, 308.42 K
  solubility (mole fraction): 0.03
In p-xylene, 313.11 K
  solubility (mole fraction): 0.036
In p-xylene, 317.38 K
  solubility (mole fraction): 0.0442
In p-xylene, 320.55 K
  solubility (mole fraction): 0.0539
In p-xylene, 326.44 K
  solubility (mole fraction): 0.0679
In toluene, 293.35 K
  solubility (mole fraction): 0.0227
In toluene, 298.16 K
  solubility (mole fraction): 0.0287
In toluene, 303.08 K
  solubility (mole fraction): 0.0386
In toluene, 307.11 K
  solubility (mole fraction): 0.0498
In toluene, 312.12 K
  solubility (mole fraction): 0.065
In toluene, 316.4 K
  solubility (mole fraction): 0.0798
In toluene, 320.95 K
  solubility (mole fraction): 0.0979
In toluene, 326.54 K
  solubility (mole fraction): 0.135
